This data set is described as follows: RP, Waters ACQUITY UPLC BEH C18, 100 × 2.1 mm, 1.7 µm, 0.3 mL/min, estimated dead time 0.73 min; A: water + 0.1% formic acid, pH 3; B: methanol + 0.1% formic acid, pH 3; gradient (min/%B) 0/10 14/90 16/90 18/10. The note with it: stereoisomer not certain.
On to `CC(C)(C)NCC(O)c1ccc(O)c(CO)c1` (centres undefined) [Salbutamol], for which the LC retention time is 2.03 min. In the case of `O=[N+]([O-])c1cnc(CO)n1CCO` [Hydroxymetronidazole (MNZOH)] it was 1.9 min; in that of `CC(C1CC1)C(O)(Cn1cncn1)c1ccc(Cl)cc1` (centres undefined) [Cyproconazole I], 10.5 min; in that of `CCC1(C2OC(C3OC(O)(CO)C(C)CC3C)CC2C)CCC(C2(C)CCC3(CC(O)C(C)C(C(C)C(OC)C(C)C(=O)O)O3)O2)O1` (centres undefined) [Monensin], 15.3 min. Take `Cc1ncc([N+](=O)[O-])n1CCCO` [Ternidazole]: the LC retention time is 2.89 min. The result for `O=c1[nH]c2c(c(=O)n1C1CCCCC1)CCC2` [Lenacil] reads 8.9 min; that for `COC(=O)C1C2CC3c4[nH]c5cc(OC)ccc5c4CCN3CC2CC(OC(=O)c2cc(OC)c(OC)c(OC)c2)C1OC` (centres undefined) [Reserpine], 8.76 min. The result for `CCNc1nc(Cl)nc(NCC)n1` [Simazine] reads 7.91 min; that for `CC(C)C1(C)N=C(c2nc3ccccc3cc2C(=O)O)NC1=O` (centres undefined) [Imazaquin], 5.22 min; that for `CCCSP(=O)(OCC)SCCC` [Ethoprophos], 11.1 min. In the case of `CC(C)NCC(O)c1cc(Cl)c(N)c(Cl)c1` (centres undefined) [Clenproperol] it was 4.05 min; in that of `COC(=O)c1cc(Oc2ccc(Cl)cc2Cl)ccc1[N+](=O)[O-]` [Bifenox], 12.2 min; in that of `CCSCCSP(=O)(OC)OC` [Demeton-S-methyl], 7.56 min.

For `CN1C(=O)C(O)N=C(c2ccccc2)c2cc(Cl)ccc21` (centres undefined) [Temazepam], the LC retention time was 10.1 min.

Take `CON=C(C(=O)NC1C(=O)N2C(C(=O)[O-])=C(C[n+]3cccc4c3CCCC4)CSC12)c1csc(N)n1` (centres undefined) [Cefquinome]: the LC retention time is 3.4 min.

Take `O=C(NC(CO)C(O)c1ccc([N+](=O)[O-])cc1)C(Cl)Cl` (centres undefined) [Chloramphenicol]: the LC retention time is 5.3 min. In the case of `CCOC(=O)C(CCc1ccccc1)NC(C)C(=O)N1CCCC1C(=O)O` (centres undefined) [Enalapril] it was 7.86 min; in that of `CCCSP(=O)(OCC)Oc1ccc(Br)cc1Cl` (centres undefined) [Profenofos], 12.7 min; in that of `N#Cc1c[nH]cc1-c1cccc(Cl)c1Cl` [Fenpiclonil], 9.52 min. In the case of `CON=C1CC2(CC3CC(CC=C(C)CC(C)C=CC=C4COC5C(O)C(C)=CC(C(=O)O3)C45O)O2)OC(C(C)=CC(C)C)C1C` (centres undefined) [Moxidectin] it was 15.8 min.

For `CS(=O)(=O)c1ccc(C(O)C(CO)NC(=O)C(Cl)Cl)cc1` (centres undefined) [Thiamphenicol], the LC retention time is 3.6 min. The result for `CCOP(=O)(SC(C)CC)N1CCSC1=O` (centres undefined) [Fosthiazate] reads 8.33 min; that for `NS(=O)(=O)c1cc(C(=O)O)c(NCc2ccco2)cc1Cl` [Furosemide], 6.6 min; that for `C#CCOC(=O)C(C)Oc1ccc(Oc2ncc(Cl)cc2F)cc1` (centres undefined) [Clodinafop-propargyl], 11.5 min. In the case of `CNC(=O)Oc1cccc2c1OC(C)(C)O2` [Bendiocarb] it was 7.43 min; in that of `CCOCCOC(=O)C(C)Oc1ccc(Oc2ncc(C(F)(F)F)cc2Cl)cc1` (centres undefined) [Haloxyfop-2-ethoxyethyl], 13.1 min.

On to `CNC(=O)Oc1ccccc1OC(C)C` [Propoxur], for which the LC retention time is 7.36 min.

Consider `Cc1cc2c(s1)Nc1ccccc1N=C2N1CCN(C)CC1` [Olanzapine], for which the LC retention time was 3.3 min. In the case of `CCOP(=S)(OCC)OP(=S)(OCC)OCC` [Sulfotep] it was 11.5 min; in that of `c1coc(-c2nc3ccccc3[nH]2)c1` [Fuberidazole], 6.61 min. In the case of `CCC(=O)OCC(=O)C1(OC(=O)CC)C(C)CC2C3CCC4=CC(=O)C=CC4(C)C3(Cl)C(O)CC21C` (centres undefined) [Beclometasone dipropionate] it was 12.3 min. As for `CNC1(c2ccccc2Cl)CCCCC1=O` (centres undefined) [Ketamine], the LC retention time is 4.88 min. Take `CC(C)(C)NCC(O)c1cc(Br)c(N)c(Br)c1` (centres undefined) [Brombuterol]: the LC retention time was 5.9 min. Turning to `CC(C)Nc1nc(N)nc(Cl)n1` [Deetheylatrazine], the LC retention time is 6.06 min.

Turning to `CC1=C(C(=O)O)N2C(=O)C(NC(=O)C(N)c3ccccc3)C2SC1` (centres undefined) [Cefalexin], the LC retention time was 3.25 min. In the case of `CC(C)OP(=O)(OC(C)C)SCc1ccccc1` [Iprobenfos] it was 11.5 min; in that of `CCCCCc1cc(O)c2c(c1)OC(C)(C)C1CC=C(C(=O)O)CC21` (centres undefined) [THC-COOH], 13.9 min; in that of `COc1ccc2nc(S(=O)Cc3ncc(C)c(OC)c3C)[nH]c2c1` (centres undefined) [Omeprazole], 7.14 min. As to `COC(=O)C(C)=COP(=S)(OC)OC` [Methacrifos], the LC retention time was 9.37 min. On to `Cc1cccc(Nc2ccccc2C(=O)O)c1C` [Mefenamic acid], for which the LC retention time is 13.4 min. In the case of `CCOC(=O)C(C)Oc1ccc(Oc2nc3ccc(Cl)cc3o2)cc1` (centres undefined) [Fenoxaprop-ethyl] it was 12.7 min.

For the molecule `CNC(C)Cc1ccc2c(c1)OCO2` (centres undefined) [MDMA], the LC retention time was 3.79 min. The result for `COP(=S)(OC)SCN1C(=O)c2ccccc2C1=O` [Phosmet] reads 9.52 min; that for `CNC(=O)Oc1cccc2c1OC(C)(C)C2O` (centres undefined) [Carbofuran-3-OH], 4.08 min; that for `CN=C(NC#N)NCCSCc1nc[nH]c1C` [Cimetidine], 2.28 min.

`CC(C)Oc1cc(-n2nc(C(C)(C)C)oc2=O)c(Cl)cc1Cl` [Oxadiazon]: the LC retention time is 13 min. In the case of `Cc1cnc2c(C(=O)O)c(Cl)ccc2c1` [Quinmerac] it was 3.44 min; in that of `CCC1OC(=O)C(C)C(OC2CC(C)(OC)C(O)C(C)O2)C(C)C(OC2OC(C)CC(N(C)C)C2O)C(C)(OC)CC(C)C(=O)C(C)C(O)C1(C)O` (centres undefined) [Clarithromycin], 10.5 min. Turning to `COP(=S)(OC)SCC(=O)N(c1ccc(Cl)cc1)C(C)C` [Anilofos], the LC retention time is 11.7 min. In the case of `CC(C)(C)C(O)C(Oc1ccc(-c2ccccc2)cc1)n1cncn1` (centres undefined) [Bitertanol] it was 12 min. In the case of `O=C(NC(=O)c1ccccc1Cl)Nc1ccc(OC(F)(F)F)cc1` [Triflumuron] it was 12 min; in that of `CCOP(=S)(OCC)SCSP(=S)(OCC)OCC` [Ethion], 13.4 min. As for `O=[N+]([O-])/N=C1\NCCN1Cc1ccc(Cl)nc1` [Imidacloprid], the LC retention time was 4.63 min. Regarding `CC(N)Cc1ccc2c(c1)OCO2` (centres undefined) [MDA], the LC retention time is 3.62 min. With `CCc1cccc(C)c1N(C(=O)CCl)C(C)COC` (centres undefined) [Metolachlor], the LC retention time was 11.7 min. In the case of `CC12Cc3cn[nH]c3CC1CCC1C2CCC2(C)C1CCC2(C)O` (centres undefined) [Stanozolol] it was 12 min. As to `CCON=C(OC(=O)c1ccccc1)c1c(OC)ccc(Cl)c1OC` [Benzoximate], the LC retention time was 12.1 min. The result for `COP(=O)(NC(C)=O)SC` (centres undefined) [Acephate] reads 1.45 min; that for `CNC(=O)CSP(=S)(OC)OC` [Dimethoate], 5.37 min; that for `Nc1ccc(Cl)c(Cl)c1` [3.4-dichloroaniline], 7.98 min. In the case of `CC(C)N1C(=O)N(c2ccccc2)CSC1=NC(C)(C)C` [Buprofezin] it was 13.1 min; in that of `CCOC(=O)c1cnn(C)c1S(=O)(=O)NC(=O)Nc1nc(OC)cc(OC)n1` [Pyrazosulfuron-ethyl], 7.91 min. In the case of `CC(C)N1C(=O)c2ccccc2NS1(=O)=O` [Bentazon] it was 3.68 min; in that of `CN(C)CCCN1c2ccccc2Sc2ccc(C(F)(F)F)cc21` [Triflupromazine], 10.6 min; in that of `CC(C)(C)C(O)(CCc1ccc(Cl)cc1)Cn1cncn1` (centres undefined) [Tebuconazole], 11.8 min. Consider `CC(=O)OCC(=O)C1(O)CCC2C3CCC4=CC(=O)C=CC4(C)C3C(O)CC21C` (centres undefined) [Prednisolone 21-acetate], for which the LC retention time was 9.54 min. `CN(C)CCOC(c1ccccc1)c1ccccc1` [Diphenhydramine]: the LC retention time is 7.71 min. Regarding `CC(=O)Nc1ccc(O)cc1` [Acetaminophen], the LC retention time is 2.4 min. For `CCCCC(C#N)(Cn1cncn1)c1ccc(Cl)cc1` (centres undefined) [Myclobutanil], the LC retention time is 10.6 min.

For `COc1cc2c(c3oc(=O)c4c(c13)CCC4=O)C1(O)C=COC1O2` (centres undefined) [Aflatoxin M1], the LC retention time was 7.15 min. In the case of `CCC1CCCC(OC2CCC(N(C)C)C(C)O2)C(C)C(=O)C2=CC3C(C=CC4CC(OC5OC(C)C(OC)C(OC)C5OC)CC43)C2CC(=O)O1` (centres undefined) [Spinosyn A] it was 12 min; in that of `O=C(C1CCCCC1)N1CC(=O)N2CCc3ccccc3C2C1` (centres undefined) [Praziquantel], 10.1 min; in that of `CC(C)(C)NCC(O)c1ccccc1Cl` (centres undefined) [Tulobuterol], 5.6 min.

Regarding `CC1(C)CCC(=Cc2ccc(Cl)cc2)C1(O)Cn1cncn1` (centres undefined) [Triticonazole], the LC retention time is 11 min. In the case of `Cc1cc(C)nc(NC(=O)NS(=O)(=O)c2ccccc2C(=O)OC2COC2)n1` [Oxasulfuron] it was 6.3 min. For the molecule `CCN(CC)C(=O)C(C)Oc1cccc2ccccc12` (centres undefined) [Napropamide], the LC retention time was 11 min.

On to `CNC(=O)ON=CC(C)(C)SC` [Aldicarb], for which the LC retention time is 6.2 min. The result for `CON=C(C(=O)NC1C(=O)N2C(C(=O)O)=C(COC(C)=O)CSC12)c1csc(N)n1` (centres undefined) [Cefotaxime] reads 4.41 min.

For `CCS(=O)(=O)c1cccnc1S(=O)(=O)NC(=O)Nc1nc(OC)cc(OC)n1` [Rimsulfuron], the LC retention time was 5.84 min.

These data come from the RepoRT retention time repository (doi:10.1016/j.scitotenv.2015.08.078).
